Consider twelve molecules from patent US20240216312A1, “PPAR-AGONISTS FOR USE IN THE TREATMENT OF LIVER FAILURE” (Genfit, priority 2021, published 2024).

One assay deals with THP1 macrophages. In words: LPS (Klebsiella pneumoniae) activation of THP1 macrophages, MCP1 and TNFα secretion (HTRF). The following applies: 24 h, then LPS Klebsiella 6 h; for inhibition at 1 µM / inhibition at 10 µM: Homo sapiens; for inhibition at 1 µM: THP-1, 1 μM; for inhibition at 10 µM: THP-1, 10 μM. The assay is classed as cell-based, human. As to the method: In order to test the efficacy of the compounds on macrophage activation and pro-inflammatory cytokine production, 2.5×10^4 THP-1 cells were cultured in a 384-well plate and treated with 100 ng/mL PMA (#P8139, Sigma) for 24 h to induce differentiation into macrophages.
Then, medium was removed and FBS-deprived medium containing 1 or 10 μM compound was added for 24 h. Finally, THP1 macrophages were stimulated for 6 h with 100 ng/mL LPS (Klebsiella pneumoniae, #L4268, Sigma-Aldrich).
Monocyte chemoattractant protein 1 (MCP1) and Tumor necrosis α (TNFα) were measured in cell supernatants by Homogeneous Time Resolved Fluorescence (HTRF, #62[…] for TNFα, and 62HCCL2PEG for MCP1, Cisbio). Fluorescence was measured with Infinite 500 (#30019337, Tecan) to determine the concentration of cytokines.
In order to evaluate the effect of the compounds according to the invention on LPS-induced cytokines production by macrophages, the percentage of inhibition over the vehicle condition were calculated for each compound at 1 and 10 μM.

Assay [1] relates to LPS/GaIN acute liver failure, C57BL/6J mice. Description: LPS/GalN model of acute liver failure in mice, hepatic gene expression, serum cytokines and albumin. The assay is classed as in vivo, mouse. Particulars: mouse serum, 1 mg/kg/day oral 3 days before LPS/GaIN, 4 h after injection.
Where [2] appears, read: read-out: % inhibition of MCP1 secretion over mean Veh.
[3] abbreviates: read-out: % inhibition of TNFα secretion over mean Veh.

Read-outs that look alike come from different tables or passages of the source.

In general, inhibition refers to the relative decrease from the control value, in per cent. For `CCc1ccc(CCOc2ccc(CC3SC(=O)NC3=O)cc2)nc1` (stereo not shown) [Cpd. 21, pioglitazone, reference compound], the inhibition at 1 µM in the assay with THP1 macrophages (setting [2]) came to 80%. For the same molecule, in the assay on THP1 macrophages (setting [3]), the inhibition at 1 µM is 0% and the inhibition at 10 µM was in the range of 11 to 58%.

For the molecule `Cc1cc(CCC(=O)c2ccc(C(F)(F)F)cc2)cc(C)c1OC(C)(C)C(=O)O` [Cpd. 3, 2-[2,6-dimethyl-4-[3-[4-(trifluoromethyl)phenyl]-3-oxo-propyl]phenoxy]-2-methylpropanoic acid], the inhibition at 1 µM in the assay on THP1 macrophages (setting [2]) was determined as 90%. In the assay on THP1 macrophages (setting [3]), the inhibition at 1 µM was 0% and the inhibition at 10 µM lay within 11 to 58%.

In the case of `CCOC(CCc1ccc(OC(C)(C)C(=O)O)c(Cl)c1Cl)c1sc(-c2ccc(C(F)(F)F)cc2)nc1C` (stereo not shown) [Cpd. 9, 2-(2,3-dichloro-4-(3-ethoxy-3-(4-methyl-2-(4-(trifluoromethyl)-phenyl)thiazol-5-yl)propyl)phenoxy)-2-methylpropanoic acid], the inhibition at 1 µM was 86% in the assay on THP1 macrophages (setting [2]) and 3% in the assay on THP1 macrophages (setting [3]).

As for `CC[C@@H](Oc1cccc(CN(CCCOc2ccc(OC)cc2)c2nc3ccccc3o2)c1)C(=O)O` [Cpd. 18, pemafibrate, reference compound], in assay [1], the “decrease of circulating IL10 level compared to vehicle” value was found to be 52% and the serum albumin level entry was “restore albumin concentration”.

`COC(CCc1cc(C)c(OC(C)(C)C(=O)O)c(C)c1)c1ccc(Br)cc1` (stereo not shown) [Cpd. 14, 2-[2,6-dimethyl-4-[3-[4-bromophenyl]-3-methoxypropyl]phenoxy]-2-methylpropanoic acid]: the inhibition at 1 µM turned out to be 91% in the assay on THP1 macrophages (setting [2]) and 18% with THP1 macrophages (setting [3]).

Take `Cc1cc(CCC(=O)c2ccc(OC(F)(F)F)cc2)cc(C)c1OC(C)(C)C(=O)O` [Cpd. 2, 2-[2,6-dimethyl-4-[3-[4-(trifluoromethyloxy)phenyl]-3-oxo-propyl]phenoxy]-2-methylpropanoic acid]: in the assay on THP1 macrophages (setting [2]), the inhibition at 1 µM was 96%.

As for `CSc1ccc(C(CCc2cc(C)c(OC(C)(C)C(=O)O)c(C)c2)OC(C)C)cc1` (stereo not shown) [Cpd. 5, 2-[2,6-dimethyl-4-[3-[4-(methylthio)phenyl]-3-isopropyloxypropyl]phenoxy]-2-methylpropanoic acid], the inhibition at 1 µM with THP1 macrophages (setting [2]) was 93%.

Regarding `CCO[C@H](COc1ccc(C(F)(F)F)cc1)CSc1ccc(OCC(=O)O)c(C)c1.NCCCC[C@H](N)C(=O)O.O.O` [Cpd. 20, seladelpar lysine, reference compound], the “% inhibition of MCP1 secretion over mean Veh.” value (shortened to “% inhibition of MCP1 secretion”) with THP1 macrophages (1 μM) was 105%.

Consider `O=C(O)CCCc1cc2cc(Cl)ccc2n1S(=O)(=O)c1ccc2ncsc2c1` [Cpd. 23, lanifibranor, reference compound], for which the values for the inhibition at 1 µM in the assay with THP1 macrophages (setting [2]) and in the assay with THP1 macrophages (setting [3]) were 100% and 15%, respectively.

Take `CN(CCOc1ccc(CC2SC(=O)NC2=O)cc1)c1ccccn1` (stereo not shown) [Cpd. 22, rosiglitazone, reference compound]: in the assay with THP1 macrophages (1 μM), the “% inhibition of MCP1 secretion” value is on record as 79% and the “% inhibition of TNFα secretion over mean Veh.” value was determined as 36%. Further, in the assay with THP1 macrophages (10 μM, 10 µM), the “% inhibition of MCP1 secretion” value came to 117% and the “% inhibition of TNFα secretion over mean Veh.” value was found to be 11%.

Regarding `CC(C)(Oc1ccc(CCNC(=O)c2ccc(Cl)cc2)cc1)C(=O)O` [Cpd. 17, bezafibrate, reference compound], in the assay on THP1 macrophages (setting [2]), the inhibition at 1 µM came to 22% and the inhibition at 10 µM lay within 54 to 132%.

Regarding `CON=C(CCc1cc(C)c(OC(C)(C)C(=O)O)c(C)c1)c1ccc(OC(F)(F)F)cc1` [Cpd. 7, 2-(4-(3-(methoxyimino)-3-(4-(trifluoromethoxy)phenyl)propyl)-2,6-dimethylphenoxy)-2-methylpropanoic acid], the figures for the inhibition at 1 µM with THP1 macrophages (setting [2]) and with THP1 macrophages (setting [3]) were 95% and 25%, respectively.
